Where two headings read alike, the source gives them in different places.
Columns and labels:
Human Nav1.8 = target: T1, Human Nav1.8 (Homo sapiens, UniProt Q9Y5Y9); assay: VIPR assay for Nav1.8 (FRET membrane potential, deltamethrin as opener); assay type: cell-based; settings: for IC50: HEK293 cells expressing human Nav1.8, average of replicates; for Selectivity Ratio: TTX-S IC50 / NaV1.8 IC50
T1 construct: expressed in transfected cells

[1] = tested on: tetrodotoxin-sensitive voltage-gated sodium channels including NaV1.2, NaV1.3 and NaV1.7 (SHSY-5Y cell line); assay: TTX-S assay in SHSY-5Y cell line (VIPR procedure, veratridine as opener); assay type: cell-based; settings: read-out: TTX-S IC50, SHSY-5Y cells, veratridine 50 μM, average of replicates
[2] = automated dissolution procedure

T1 sequence (Q9Y5Y9 whole entry): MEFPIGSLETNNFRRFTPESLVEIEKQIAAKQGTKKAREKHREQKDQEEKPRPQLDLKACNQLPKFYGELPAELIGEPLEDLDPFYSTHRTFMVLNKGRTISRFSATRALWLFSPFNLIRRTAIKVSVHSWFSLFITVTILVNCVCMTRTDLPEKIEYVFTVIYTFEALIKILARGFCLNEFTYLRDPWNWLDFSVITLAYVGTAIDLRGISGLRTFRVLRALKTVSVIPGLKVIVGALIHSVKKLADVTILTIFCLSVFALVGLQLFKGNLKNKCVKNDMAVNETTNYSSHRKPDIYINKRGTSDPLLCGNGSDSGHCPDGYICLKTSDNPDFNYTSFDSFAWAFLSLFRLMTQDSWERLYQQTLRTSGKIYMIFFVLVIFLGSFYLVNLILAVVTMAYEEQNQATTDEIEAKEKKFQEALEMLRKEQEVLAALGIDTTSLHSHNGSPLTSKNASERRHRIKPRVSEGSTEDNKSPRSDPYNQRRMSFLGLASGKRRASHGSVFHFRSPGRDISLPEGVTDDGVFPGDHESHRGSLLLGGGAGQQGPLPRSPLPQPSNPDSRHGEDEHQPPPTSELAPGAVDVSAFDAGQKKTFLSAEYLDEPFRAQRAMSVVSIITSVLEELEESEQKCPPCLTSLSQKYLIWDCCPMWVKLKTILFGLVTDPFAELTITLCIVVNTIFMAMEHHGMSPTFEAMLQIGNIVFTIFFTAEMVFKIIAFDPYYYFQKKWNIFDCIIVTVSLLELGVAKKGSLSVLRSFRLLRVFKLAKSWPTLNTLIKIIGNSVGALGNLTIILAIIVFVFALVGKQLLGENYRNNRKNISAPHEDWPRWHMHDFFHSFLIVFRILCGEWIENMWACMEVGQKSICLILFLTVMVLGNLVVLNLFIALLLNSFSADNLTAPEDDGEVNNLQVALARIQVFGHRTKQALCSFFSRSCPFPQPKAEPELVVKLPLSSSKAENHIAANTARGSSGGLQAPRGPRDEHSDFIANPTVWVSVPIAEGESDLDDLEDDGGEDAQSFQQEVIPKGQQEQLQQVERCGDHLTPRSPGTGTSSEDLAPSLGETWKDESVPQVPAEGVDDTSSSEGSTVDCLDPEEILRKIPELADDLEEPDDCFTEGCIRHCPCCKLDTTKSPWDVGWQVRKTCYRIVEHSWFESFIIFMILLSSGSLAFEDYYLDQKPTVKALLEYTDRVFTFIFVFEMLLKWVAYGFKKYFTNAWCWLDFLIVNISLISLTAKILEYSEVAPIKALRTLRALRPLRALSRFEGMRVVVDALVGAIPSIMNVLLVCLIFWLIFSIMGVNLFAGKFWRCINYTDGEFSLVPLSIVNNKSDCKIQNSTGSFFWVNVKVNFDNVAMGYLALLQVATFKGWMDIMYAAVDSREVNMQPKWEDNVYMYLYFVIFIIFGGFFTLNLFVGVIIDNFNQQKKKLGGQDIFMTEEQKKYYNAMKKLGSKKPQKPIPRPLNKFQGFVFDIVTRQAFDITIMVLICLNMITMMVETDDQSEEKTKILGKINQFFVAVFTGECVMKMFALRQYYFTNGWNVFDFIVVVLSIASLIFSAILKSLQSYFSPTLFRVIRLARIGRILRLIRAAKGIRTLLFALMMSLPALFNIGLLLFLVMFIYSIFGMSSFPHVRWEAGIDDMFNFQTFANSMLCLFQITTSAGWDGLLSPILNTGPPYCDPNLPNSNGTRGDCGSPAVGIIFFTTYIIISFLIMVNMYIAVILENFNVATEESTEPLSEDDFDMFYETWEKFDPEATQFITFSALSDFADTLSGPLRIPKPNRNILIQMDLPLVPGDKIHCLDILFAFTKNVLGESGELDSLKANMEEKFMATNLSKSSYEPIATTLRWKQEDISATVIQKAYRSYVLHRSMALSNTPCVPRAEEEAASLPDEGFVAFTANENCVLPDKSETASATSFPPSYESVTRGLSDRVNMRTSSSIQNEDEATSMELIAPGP

Row | Structure (SMILES) | IC50 (Human Nav1.8; [2]) | Selectivity Ratio (Human Nav1.8; [2]) | IC50 [1, 2] | IC50 (Human Nav1.8; manual dissolution procedure) | Selectivity Ratio (Human Nav1.8; manual dissolution procedure) | IC50 ([1]; manual dissolution procedure)
1 | Cc1nonc1C(=O)Nc1cnc(-c2ccccc2Cl)c(N)n1 [Example 55, N-[6-amino-5-(2-chlorophenyl)pyrazin-2-yl]-4-methyl-1,2,5-oxadiazole-3-carboxamide] | > 21.5 µM | ->1.40 | > 30.2 µM | – | – | –
2 | COc1cc(Cl)cc(-c2ncc(NC(=O)c3cnoc3C)nc2N)c1Cl [Example 13, N-[6-amino-5-(2,5-dichloro-3-methoxyphenyl)pyrazin-2-yl]-5-methylisoxazole-4-carboxamide] | 10.4 µM | >2.48 | > 25.8 µM | – | – | –
3 | COc1ccc(Cl)c(-c2ncc(NC(=O)c3ccon3)nc2N)c1 [Example 37, N-[6-amino-5-(2-chloro-5-methoxyphenyl)pyrazin-2-yl]isoxazole-3-carboxamide] | > 29.4 µM | – | > 30.2 µM | – | – | –
4 | CCc1noc(C)c1C(=O)Nc1cnc(-c2cc(OC)ccc2Cl)c(N)n1 [Example 31, N-[6-amino-5-(2-chloro-5-methoxyphenyl)pyrazin-2-yl]-3-ethyl-5-methylisoxazole-4-carboxamide] | 5.38 µM | >5.22 | > 28.1 µM | – | – | –
5 | Cn1nccc1C(=O)Nc1cnc(-c2cc(F)ccc2Cl)c(N)n1 [Example 4, N-[6-amino-5-(2-chloro-5-fluorophenyl)pyrazin-2-yl]-1-methyl-1H-pyrazole-5-carboxamide] | 8.73 µM | >3.46 | > 30.2 µM | – | – | –
6 | COc1ccc(Cl)c(-c2ncc(NC(=O)c3cnoc3C)nc2N)c1 [Example 15, N-[6-amino-5-(2-chloro-5-methoxyphenyl)pyrazin-2-yl]-5-methylisoxazole-4-carboxamide] | > 30.2 µM | – | > 30.4 µM | – | – | –
7 | Cc1nonc1C(=O)Nc1cnc(-c2cccc3ccccc23)c(N)n1 [Example 44, N-[6-amino-5-(1-naphthyl)pyrazin-2-yl]-4-methyl-1,2,5-oxadiazole-3-carboxamide] | 16.5 µM | >1.67 | > 27.4 µM | – | – | –
8 | Cc1nonc1C(=O)Nc1cnc(-c2cccc(Cl)c2Cl)c(N)n1 [Example 59, N-[6-amino-5-(2,3-dichlorophenyl)pyrazin-2-yl]-4-methyl-1,2,5-oxadiazole-3-carboxamide] | 7.23 µM | >3.58 | > 25.9 µM | – | – | –
9 | Cc1nocc1C(=O)Nc1cnc(-c2cc(Cl)cc3c2OCCO3)c(N)n1 [Example 21, N-[6-amino-5-(7-chloro-2,3-dihydro-1,4-benzodioxin-5-yl)pyrazin-2-yl]-3-methylisoxazole-4-carboxamide] | 4.81 µM | 4.35 | 20.9 µM | – | – | –
10 | COCCn1nccc1C(=O)Nc1cnc(-c2cc(OC)ccc2Cl)c(N)n1 [Example 34, N-[6-amino-5-(2-chloro-5-methoxyphenyl)pyrazin-2-yl]-1-(2-methoxyethyl)-1H-pyrazole-5-carboxamide] | 15.6 µM | – | > 30.2 µM | – | – | –
11 | Cc1nocc1C(=O)Nc1cnc(-c2cccc3ccccc23)c(N)n1 [Example 19, N-[6-amino-5-(1-naphthyl)pyrazin-2-yl]-3-methylisoxazole-4-carboxamide] | – | – | – | 4.72 µM | >6.36 | > 30 µM
12 | Cc1nocc1C(=O)Nc1cnc(-c2ccccc2Cl)c(N)n1 [Example 16, N-[6-amino-5-(2-chlorophenyl)pyrazin-2-yl]-3-methylisoxazole-4-carboxamide] | 1.01 µM | >23.6 | > 24 µM | – | – | –
13 | Cc1nocc1C(=O)Nc1cnc(-c2cc(Cl)ccc2Cl)c(N)n1 [Example 20, N-[6-amino-5-(2,5-dichlorophenyl)pyrazin-2-yl]-3-methylisoxazole-4-carboxamide] | 0.511 µM | 18.00 | 9.2 µM | 0.188 µM | 66.5 | 12.5 µM
14 | Cn1nccc1C(=O)Nc1cnc(-c2cc(C#N)ccc2Cl)c(N)n1 [Example 11, N-[6-amino-5-(2-chloro-5-cyanophenyl)pyrazin-2-yl]-1-methyl-1H-pyrazole-5-carboxamide] | 4.47 µM | >6.76 | > 30.2 µM | – | – | –
15 | Cc1oncc1C(=O)Nc1cnc(-c2ccccc2Cl)c(N)n1 [Example 50, N-[6-amino-5-(2-chlorophenyl)pyrazin-2-yl]-5-methylisoxazole-4-carboxamide] | 10.3 µM | >2.90 | > 29.9 µM | – | – | –
16 | Cn1nccc1C(=O)Nc1cnc(-c2cc(Cl)cc3c2OCCO3)c(N)n1 [Example 3, N-[6-Amino-5-(7-chloro-2,3-dihydro-1,4-benzodioxin-5-yl)pyrazin-2-yl]-1-methyl-1H-pyrazole-5-carboxamide] | 15.2 µM | >1.89 | > 28.8 µM | – | – | –
17 | COCCn1nccc1C(=O)Nc1cnc(-c2ccccc2Cl)c(N)n1 [Example 56, N-[6-amino-5-(2-chlorophenyl)pyrazin-2-yl]-1-(2-methoxyethyl)-1H-pyrazole-5-carboxamide] | > 26.7 µM | – | > 30.2 µM | – | – | –

Row | Structure (SMILES) | IC50 (Human Nav1.8; [2]) | Selectivity Ratio (Human Nav1.8; [2]) | IC50 [1, 2] | IC50 (Human Nav1.8; manual dissolution procedure) | Selectivity Ratio (Human Nav1.8; manual dissolution procedure) | IC50 ([1]; manual dissolution procedure)
18 | COc1ccc(Cl)c(-c2ncc(NC(=O)c3conc3C)nc2N)c1 [Example 28, N-[6-amino-5-(2-chloro-5-methoxyphenyl)pyrazin-2-yl]-3-methylisoxazole-4-carboxamide] | 2.61 µM | 9.81 | 25.6 µM | – | – | –
19 | Cc1nonc1C(=O)Nc1cnc(-c2cc(Cl)ccc2Cl)c(N)n1 [Example 23, N-[6-amino-5-(2,5-dichlorophenyl)pyrazin-2-yl]-4-methyl-1,2,5-oxadiazole-3-carboxamide] | 8.04 µM | >3.54 | > 28.5 µM | – | – | –
20 | CCCc1oncc1C(=O)Nc1cnc(-c2cc(OC)ccc2Cl)c(N)n1 [Example 38, N-[6-amino-5-(2-chloro-5-methoxyphenyl)pyrazin-2-yl]-5-propylisoxazole-4-carboxamide] | > 30.2 µM | – | > 30.4 µM | – | – | –
21 | Nc1nc(NC(=O)c2cnoc2)cnc1-c1cccc(Cl)c1Cl [Example 60, N-[6-amino-5-(2,3-dichlorophenyl)pyrazin-2-yl]isoxazole-4-carboxamide] | 7.19 µM | >4.20 | > 30.2 µM | – | – | –
22 | COc1cc(Cl)cc(-c2ncc(NC(=O)c3cnoc3)nc2N)c1Cl [Example 48, N-[6-amino-5-(2,5-dichloro-3-methoxyphenyl)pyrazin-2-yl]isoxazole-4-carboxamide] | 8.06 µM | >3.75 | > 30.2 µM | – | – | –
23 | Cn1nccc1C(=O)Nc1cnc(-c2cc(Cl)ccc2Cl)c(N)n1 [Example 7, N-[6-amino-5-(2,5-dichlorophenyl)pyrazin-2-yl]-1-methyl-1H-pyrazole-5-carboxamide] | 3.8 µM | 5.40 | 20.5 µM | 3.98 µM | 3.79 | 15.1 µM
24 | Cn1nccc1C(=O)Nc1cnc(-c2ccccc2Cl)c(N)n1 [Example 57, N-[6-amino-5-(2-chlorophenyl)pyrazin-2-yl]-1-methyl-1H-pyrazole-5-carboxamide] | > 28.4 µM | – | > 30.2 µM | – | – | –
25 | COc1ccc(Cl)c(-c2ncc(NC(=O)c3cnoc3C(C)C)nc2N)c1 [Example 30, N-[6-amino-5-(2-chloro-5-methoxyphenyl)pyrazin-2-yl]-5-isopropylisoxazole-4-carboxamide] | 3.63 µM | >8.15 | > 29.6 µM | – | – | –
26 | Nc1nc(NC(=O)c2ccn[nH]2)cnc1-c1cc(Cl)ccc1Cl [Example 62, N-[6-amino-5-(2,5-dichlorophenyl)pyrazin-2-yl]-1H-pyrazole-5-carboxamide] | > 30.2 µM | – | > 30.2 µM | – | – | –
27 | COc1cc(Cl)cc(-c2ncc(NC(=O)c3conc3C)nc2N)c1Cl [Example 49, N-[6-Amino-5-(2,5-dichloro-3-methoxyphenyl)pyrazin-2-y]-3-methylisoxazole-4-carboxamide] | 0.629 µM | >21.6 | > 13.6 µM | – | – | –
28 | COCCn1nccc1C(=O)Nc1cnc(-c2cccc(Cl)c2Cl)c(N)n1 [Example 58, N-[6-amino-5-(2,3-dichlorophenyl)pyrazin-2-yl]-1-(2-methoxyethyl)-1H-pyrazole-5-carboxamide] | 9.42 µM | >3.21 | > 30.2 µM | – | – | –
29 | COc1ccc(Cl)c(-c2ncc(NC(=O)c3nonc3C)nc2N)c1 [Example 29, N-[6-amino-5-(2-chloro-5-methoxyphenyl)pyrazin-2-yl]-4-methyl-1,2,5-oxadiazole-3-carboxamide] | 7.97 µM | >3.69 | > 29.4 µM | – | – | –
30 | COc1ccc(Cl)c(-c2ncc(NC(=O)c3cnoc3)nc2N)c1 [Example 33, N-[6-amino-5-(2-chloro-5-methoxyphenyl)pyrazin-2-yl]isoxazole-4-carboxamide] | > 22.7 µM | ->1.33 | > 30.2 µM | – | – | –
31 | Cc1oncc1C(=O)Nc1cnc(-c2cc(Cl)cc(Cl)c2Cl)c(N)n1 [Example 14, N-[6-amino-5-(2,3,5-trichlorophenyl)pyrazin-2-yl]-5-methylisoxazole-4-carboxamide] | 1.36 µM | 10.8 | 14.7 µM | 0.276 µM | 12.7 | 3.49 µM
32 | COc1ccc(Cl)c(-c2ncc(NC(=O)c3ccno3)nc2N)c1 [Example 32, N-[6-amino-5-(2-chloro-5-methoxyphenyl)pyrazin-2-yl]isoxazole-5-carboxamide] | 6.12 µM | >4.93 | > 30.2 µM | – | – | –
33 | Cc1oncc1C(=O)Nc1cnc(-c2cc(Cl)cc3c2OCCO3)c(N)n1 [Example 39, N-[6-amino-5-(7-chloro-2,3-dihydro-1,4-benzodioxin-5-yl)pyrazin-2-yl]-5-methylisoxazole-4-carboxamide] | 5.45 µM | >3.25 | > 17.7 µM | – | – | –

Source: patent US7572797B2, “Amino substituted pyrazine derivatives for the treatment of pain” (Pfizer Inc., priority 2005, dated 2009)
